The test system of the assay is LNCaP human prostate cancer cells. Put plainly: Smad phosphorylation in LNCaP prostate cancer cells (Western blot). Type of assay: cell-based. Particulars: for Smad 1, 5, 8 phosphorylation on co-administration: TDFRP compound co-administered with BMP-6, LNCaP cells; for Smad phosphorylation and activation: single agent, cultured LNCaP cells. How it is done:
The detection of Smad phosphorylation by Western analysis, for example in LNCaP (prostate cancer cells) or EC (vascular endothelial cells) in culture medium can be examined after exposure to varying concentrations of TDFRP or control compounds. BMP-7 serves as a positive control. Cells are lysed in RIPA lysis buffer (50 mM Tris-HCl at pH 8.0, 150 mM NaCl, 1% NP-40, 0.5% sodium deoxycholate, 0.1% SDS) containing 1 mM PMSF, 1 mM sodium orthovanadate, and 10 ug/mL proteinase inhibitor cocktail. Lysates are incubated on ice for 15 minutes, centrifuged, and transferred supernatant to a clean tube. 50 to 100 ug is used for analysis by SDS-PAGE. Resolved proteins are electro transferred onto PVDF membrane. The blot is blocked by incubating in 3% non-fat dry milk prepared in PBS at room temperature for 1 hour with constant slow agitation. The blot is incubated with 1-2 ug/mL of primary antibody (rabbit anti-phospho-Smad 1) prepared in PBS-milk, overnight with agitation at 4 degree C., washed twice with PBS, and incubated with secondary antibody (anti rabbit HRP conjugated IgG, 1:3000 dilution) at room temperature for 2 hours with agitation. After washing in PBS-0.05% Tween 20 for 5 minutes and rinsing, Smad phosphorylation is detected via an HRP reaction according to manufacturer's instructions (FIGS. 2, 3, 18, 2X).
For detection of Smad phosphorylation by Western analysis, LNCaP (prostate cancer cells) or EC (vascular endothelial cells) in culture medium are exposed to varying concentrations of TDFRP or control compounds. BMP-7 served as a positive control. Cells are lysed in RIPA lysis buffer (50 mM Tris-HCl at pH 8.0, 150 mM NaCl, 1% NP-40, 0.5% sodium deoxycholate, 0.1% SDS) containing 1 mM PMSF, 1 mM sodium orthovanadate, and 10 ug/mL proteinase inhibitor cocktail. Lysates are incubated on ice for 15 minutes, centrifuged, and transferred supernatant to a clean tube. 50 to 100 ug is used for analysis by
SDS-PAGE. Resolved proteins are electro transferred onto PVDF membrane. The blot is blocked by incubating in 3% non-fat dry milk prepared in PBS at room temperature for 1 hour with constant slow agitation. The blot is incubated with 1-2 ug/mL of primary antibody (rabbit anti-phospho-Smad 1) prepared in PBS-milk, overnight with agitation at 4 degree C., washed twice with PBS, and incubated with secondary antibody (anti rabbit HRP conjugated IgG, 1:3000 dilution) at room temperature for 2 hours with agitation. After washing in PBS-0.05% Tween 20 for 5 minutes and rinsing, Smad phosphorylation is detected via an HRP reaction according to manufacturer's instructions (FIGS. 3, 27).
BMP signaling molecules co-administered with TDFRP compounds show synergistic or enhanced downstream signaling as detected by Smad phosphorylation. Smad phosphorylation was assessed by Western analysis in LNCaP (prostate cancer cells) or EC (vascular endothelial cells) cells in culture medium exposed to varying concentrations of TDFRP or control compounds. BMP-7 served as a positive control. Cells are lysed in RIPA lysis buffer (50 mM Tris-HCl at pH 8.0, 150 mM NaCl, 1% NP-40, 0.5% sodium deoxycholate, 0.1% SDS) containing 1 mM PMSF, 1 mM sodium orthovanadate, and 10 ug/mL proteinase inhibitor cocktail. Lysates are incubated on ice for 15 minutes, centrifuged, and transferred supernatant to a clean tube. 50 to 100 ug is used for analysis by SDS-PAGE. Resolved proteins are electro transferred onto PVDF membrane. […]
A general note: A western blot detects proteins with antibodies after separation by electrophoresis.

Entries after “also recorded” stand apart in the source; their conditions may differ. Positions of bridges follow the written chain, without caps; N, C: chain ends. No end group written: not given here.

For “CYFDDSSNVLCKKYRS (disulfide 1-11 (inferred); not fully specified) [SEQ ID NO:45]”, the “Smad 1, 5, 8 phosphorylation on co-administration” value was “enhanced”; the “Smad phosphorylation and activation” value was “induced”. Also, where the note is “listed as SEQ ID NO: 45”, the “Smad 1, 5, 8 phosphorylation on co-administration” value is on record as “enhanced or synergistic activity”; the “Smad phosphorylation and activation” value was “phosphorylation and activation of Smad1 and Smad5; also recorded: Smad 1, 5, 8 phosphorylation and activation”.

The values above are taken from patent US8911953B2, “TDF-related compounds and analogs thereof, analogs and bioactive fragments” (Thrasos Innovation, Inc., priority 2005, dated 2014).
